Data reported in PubChem BioAssay AID2060627 (Molecular Pharmacology Branch, DTP, NCI, 2025).
pIC50: −log10 of the molar value. Several values for one entry are separate records, joined by “and”; a condition that tells them apart may be missing. Identical values can stand only once.

System: 156681-154-R-J1-PDC complex spheroid viability
Assay: Anticancer human tumor 156681-154-R-J1-PDC patient-derived melanoma cell line growth inhibition [CLK]
Settings: for viability, T/C: stronger effect = lower value
Description: A high-throughput screen of multi-cell type tumor spheroids was designed to identify active combinations of […] and targeted small molecules. Complex spheroids include a stromal component modeled by human endothelial cells (HUVEC) and fibroblasts modeled by human mesenchymal stem cells (MSCs). The concentration ranges selected for each drug and investigational agent were based upon clinically achievable concentrations if the clinical Cmax of the agent was known.
Compounds. The drugs and investigational agents: cirtuvivint (SM08502; NSC835563), CC-671 (NSC850746), vemurafenib (NSC761431), tapotoclax (NSC804041), sotorasib (NSC818433), adagrasib (NSC831453), MRTX-1133 (NSC836407), BAY2416964 (NSC825713), copanlisib (NSC816437), inavolisib (NSC800729), abemaciclib (NSC768073), osimertinib (NSC779217), entinostat (NSC756642), eltanexor (KPT-8602, NSC794443), venetoclax (NSC766270), ceralasertib (NSC777638), bortezomib (NSC756655), olaparib (NSC753686), talazoparib (NSC767125), alisertib (NSC759677), peposertib (NSC802822), gemcitabine (NSC613327), 5-fluorouracil (NSC19893), SN-38 (NSC673596), oxaliplatin (NSC266046), paclitaxel (NSC125973), and doxorubicin (NSC123127), were obtained from the National Cancer Institute (NCI) Developmental Therapeutics Program Chemical Repository. The FDA-approved anticancer drug set is available from the Developmental Therapeutics Program at https://dtp.cancer.gov/organization/dscb/obtaining/available plates.htm. […] The stock solutions were prepared in dimethyl sulfoxide (DMSO, Sigma-Aldrich, St. Louis, MO, cat. D2650), except for the platinum complexes which were prepared in saline (Quality Biological, Gaithersburg, MD, cat. 114-055-101), at 800-fold the tested concentration and stored at -70 degrees C prior to their use. All drugs and investigational agents were tested over a range starting from a high concentration at or near the clinical Cmax and decreasing in half-log increments. If the clinical Cmax for an agent had not been determined, the highest concentration tested was 10 microM.
Cell Culture. All cells were maintained in an incubator at 37 degrees C and 5% CO2 with 95% humidity. The PDC lines were cultured according to standard operating procedures established by the NCI PDMR. Briefly, all PDCs were thawed and cultured in Matrigel-coated flasks prepared with a working solution of 1X Ham's F-12 nutrient mix, without supplementation (Invitrogen, Waltham, MA, cat. 11765054), 100 U/mL penicillin-streptomycin (Invitrogen, cat. 15140122), and 2.5% Matrigel (Corning Inc., Corning, NY, cat. 354248) for the first three passages. The 947758-054-R-J2-PDC line was cultured in 6B/Colon 1A media, which includes advanced DMEM/F-12 (Thermo Fisher Scientific, cat. 12634028), 10 mM HEPES (Thermo Fisher Scientific, cat. 15630080), 1X GlutaMAX supplement (Thermo Fisher Scientific, cat. 35050061), 0.1 mg/mL primocin (InvivoGen, cat. ant-pm-2), 10% defined fetal bovine serum, heat inactivated (HyClone Laboratories Inc., cat. SH30070.03HI), 1.25 mM N-Acetyl-L-cysteine (Sigma-Aldrich, cat. A9165), 10 mM nicotinamide (Sigma-Aldrich, cat. N0636), 1X B-27 supplement (Thermo Fisher Scientific, cat. 17504044), 1X N-2 supplement (Thermo Fisher Scientific, cat. 17502048), and 10 microM Y-27632 dihydrochloride (Tocris Bioscience, cat. 1254). The 876862-298-R-J1-PDC was cultured in 6E media, which includes all 6B/Colon 1A media components plus 50% L-WRN conditioned media (ATCC, cat. CRL-3276), 50 ng/mL recombinant human EGF recombinant protein (hEGF; Thermo Fisher Scientific, cat. PHG0311), 10 ng/mL recombinant human fibroblast growth factor 10 (hGFG-10; PeproTech, cat. 100-26), 1 ng/mL recombinant human fibroblast growth factor 2 (hFGF-2; PeproTech, cat. 100-18B), and 1 µM prostaglandin E2 (PGE2; Tocris, cat. 2296). The 227483-062-R1-J1-PDC line was cultured in Panc media, containing all 6E components except hFGF-2, with the addition of 500 nM SB-431542 (Selleckchem, cat. S1067) and 10 nM gastrin (Tocris, cat. 3006). […]

[1] = curve of first compound, second compound 0.0316 µM
[2] = curve of first compound, second compound 0.1 µM
[3] = curve of first compound, second compound 0.316 µM
[4] = curve of first compound, second compound 1 µM
[5] = curve of first compound, second compound 3.16 µM
[6] = curve of first compound, second compound 10 µM
[7] = second compound 0.0316 µM, first compound 0.0316 µM
[8] = second compound 0.0316 µM, first compound 0.1 µM
[9] = second compound 0.1 µM, first compound 0.0316 µM
[10] = second compound 0.1 µM, first compound 0.1 µM
[11] = second compound 0.316 µM, first compound 0.0316 µM
[12] = second compound 0.316 µM, first compound 0.1 µM
[13] = second compound 1 µM, first compound 0.0316 µM
[14] = second compound 1 µM, first compound 0.1 µM
[15] = second compound 3.16 µM, first compound 0.0316 µM
[16] = second compound 3.16 µM, first compound 0.1 µM
[17] = second compound 10 µM, first compound 0.0316 µM
[18] = second compound 10 µM, first compound 0.1 µM
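Further: spheroids exposed to the agents for seven days.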
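Wherever viability, T/C is given: 100% = DMSO vehicle control viability.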

With `Cn1ncnc1[C@H]1c2n[nH]c(=O)c3cc(F)cc(c23)N[C@@H]1c1ccc(F)cc1` + CNC(=O)c1ccc(Nc2nc(OC3CCCC3)c3c(-c4ccc5nc(C)oc5c4)c[nH]c3n2)c(OC)c1 the pIC50 [1] was under 7.00, the pIC50 [2] was under 7.00 and the pIC50 [3] was under 7.00. The pIC50 [4] was 9.50, the pIC50 [5] was over 9.50 and the pIC50 [6] was over 9.50. For the same molecule, the viability, T/C (second compound 0.0316 µM, first compound 0.000316 µM) was 91.5%, the viability, T/C (second compound 0.0316 µM, first compound 0.001 µM) was 87.8% and the viability, T/C (second compound 0.0316 µM, first compound 0.00316 µM) was 74.9%. For the same molecule, the viability, T/C (second compound 0.0316 µM, first compound 0.01 µM) was 84.6%, the viability, T/C [7] was 83.2% and the viability, T/C [8] was 64.1%. The viability, T/C (second compound 0.1 µM, first compound 0.000316 µM) was 56.9%, the viability, T/C (second compound 0.1 µM, first compound 0.001 µM) was 68.6% and the viability, T/C (second compound 0.1 µM, first compound 0.00316 µM) was 75.9%. The viability, T/C (second compound 0.1 µM, first compound 0.01 µM) was 66.6%, the viability, T/C [9] was 62.3% and the viability, T/C [10] was 53.5%. It also gave a viability, T/C (second compound 0.316 µM, first compound 0.000316 µM) of 67%, a viability, T/C (second compound 0.316 µM, first compound 0.001 µM) of 68.4% and a viability, T/C (second compound 0.316 µM, first compound 0.00316 µM) of 55.4%. The viability, T/C (second compound 0.316 µM, first compound 0.01 µM) was 58.4%, the viability, T/C [11] was 60% and the viability, T/C [12] was 51.9%. It also gave a viability, T/C (second compound 1 µM, first compound 0.000316 µM) of 51.8%, a viability, T/C (second compound 1 µM, first compound 0.001 µM) of 51.1% and a viability, T/C (second compound 1 µM, first compound 0.00316 µM) of 39.8%. The viability, T/C (second compound 1 µM, first compound 0.01 µM) was 44.3%, the viability, T/C [13] was 53.6% and the viability, T/C [14] was 29.3%. It also gave a viability, T/C (second compound 3.16 µM, first compound 0.000316 µM) of 55.1%, a viability, T/C (second compound 3.16 µM, first compound 0.001 µM) of 41.5% and a viability, T/C (second compound 3.16 µM, first compound 0.00316 µM) of 43.6%. For the same molecule, the viability, T/C (second compound 3.16 µM, first compound 0.01 µM) was 49.5%, the viability, T/C [15] was 39.5% and the viability, T/C [16] was 33.1%. It also gave a viability, T/C (second compound 10 µM, first compound 0.000316 µM) of 49.3%, a viability, T/C (second compound 10 µM, first compound 0.001 µM) of 43.9% and a viability, T/C (second compound 10 µM, first compound 0.00316 µM) of 33.6%. The viability, T/C (second compound 10 µM, first compound 0.01 µM) was 32.5%, the viability, T/C [17] was 38.6% and the viability, T/C [18] was 25.4%.

For `O=C(c1cc(Cc2n[nH]c(=O)c3ccccc23)ccc1F)N1CCN(C(=O)C2CC2)CC1` + CNC(=O)c1ccc(Nc2nc(OC3CCCC3)c3c(-c4ccc5nc(C)oc5c4)c[nH]c3n2)c(OC)c1, the pIC50 [1] was under 5.00, the pIC50 [2] was under 5.00 and the pIC50 [3] was under 5.00. For the same molecule, the pIC50 [4] was 6.32, the pIC50 [5] was over 7.50 and the pIC50 [6] was over 7.50. For the same molecule, the viability, T/C [7] was 98.2%, the viability, T/C [8] was 108% and the viability, T/C (second compound 0.0316 µM, first compound 0.316 µM) was 92.3%. It also gave a viability, T/C (second compound 0.0316 µM, first compound 1 µM) of 103%, a viability, T/C (second compound 0.0316 µM, first compound 3.16 µM) of 92.5% and a viability, T/C (second compound 0.0316 µM, first compound 10 µM) of 79.3%. The viability, T/C [9] was 65.4%, the viability, T/C [10] was 72.5% and the viability, T/C (second compound 0.1 µM, first compound 0.316 µM) was 65.4%. The viability, T/C (second compound 0.1 µM, first compound 1 µM) was 80.9%, the viability, T/C (second compound 0.1 µM, first compound 3.16 µM) was 82.8% and the viability, T/C (second compound 0.1 µM, first compound 10 µM) was 60.5%. For the same molecule, the viability, T/C [11] was 78.9%, the viability, T/C [12] was 69.3% and the viability, T/C (second compound 0.316 µM, first compound 0.316 µM) was 76.3%. The viability, T/C (second compound 0.316 µM, first compound 1 µM) was 71%, the viability, T/C (second compound 0.316 µM, first compound 3.16 µM) was 70.3% and the viability, T/C (second compound 0.316 µM, first compound 10 µM) was 54.3%. The viability, T/C [13] was 59.7%, the viability, T/C [14] was 48.5% and the viability, T/C (second compound 1 µM, first compound 0.316 µM) was 48.9%. It also gave a viability, T/C (second compound 1 µM, first compound 1 µM) of 47.9%, a viability, T/C (second compound 1 µM, first compound 3.16 µM) of 42.8% and a viability, T/C (second compound 1 µM, first compound 10 µM) of 25.8%. It also gave a viability, T/C [15] of 47.8%, a viability, T/C [16] of 48.2% and a viability, T/C (second compound 3.16 µM, first compound 0.316 µM) of 47.9%. The viability, T/C (second compound 3.16 µM, first compound 1 µM) was 45.2%, the viability, T/C (second compound 3.16 µM, first compound 3.16 µM) was 35.2% and the viability, T/C (second compound 3.16 µM, first compound 10 µM) was 20.2%. For the same molecule, the viability, T/C [17] was 50.6%, the viability, T/C [18] was 37% and the viability, T/C (second compound 10 µM, first compound 0.316 µM) was 38.6%. The viability, T/C (second compound 10 µM, first compound 1 µM) was 43.1%, the viability, T/C (second compound 10 µM, first compound 3.16 µM) was 27.5% and the viability, T/C (second compound 10 µM, first compound 10 µM) was 15.6%.

With `C=CC(=O)Nc1cc(Nc2nccc(-c3cn(C)c4ccccc34)n2)c(OC)cc1N(C)CCN(C)C` the viability, T/C (compound 0.000949 µM) was 98.3% and 114%, the viability, T/C (compound 0.003 µM) was 88.5% and 85.6% and the viability, T/C (compound 0.00949 µM) was 96.7% and 88.3%. The viability, T/C (compound 0.03 µM) was 101% and 96.3%, the viability, T/C (compound 0.0949 µM) was 93.5% and 100% and the viability, T/C (compound 0.3 µM) was 80.8% and 90%. It also gave a pIC50 (curve of compound) of under 6.52.

In the case of `CNC(=O)c1ccc(Nc2nc(OC3CCCC3)c3c(-c4ccc5nc(C)oc5c4)c[nH]c3n2)c(OC)c1`, the viability, T/C (compound 0.0316 µM) was 105% [middle of 12 runs], the viability, T/C (compound 0.1 µM) was 63% [middle of 12 runs] and the viability, T/C (compound 0.316 µM) was 54.3% [middle of 12 runs]. For the same molecule, the viability, T/C (compound 1 µM) was 36.4% [middle of 11 runs] and the viability, T/C (compound 3.16 µM) was 42.1% [middle of 12 runs].
